Reference: US10227357B2, “Compounds and methods for kinase modulation, and indications therefor” (Plexxikon Inc., priority 2012, dated 2019)

Target: T1, c-kit mutant D816V (Homo sapiens, UniProt P10721, D816V/DEL694-753)
T1 construct: residues 551-934, kinase insertion domain residues 694-753 deleted; 6x-histidine (N); made in house; host or cells: E. coli Arctic Express (DE3) RIL (Stratagene)
Assay: c-Kit mutant D816V biochemical assay, AlphaScreen
Conditions: c-kit D816V biochemical inhibitory activity; read-out: Biochemical activity (IC50 μM) Kit D816V
Experimental: Compounds to be tested were dissolved in DMSO to a concentration of 20 mM. These were diluted 30 μl into 120 μl of DMSO (4 mM) and 1 μl was added to an assay plate. These were then serially diluted 1:3 (50 μl to 100 μl DMSO) for a total of 8 points. Plates were prepared such that each kinase reaction is 20 μl in 1× kinase buffer (25 mM HEPES, pH 7.2, 8 mM MgCl2, 2 mM MnCl2, 50 mM NaCl, 0.01% Brij, 1 mM DTT, 0.01% BSA), 5% DMSO and 10 μM ATP. […] After incubation of the kinase reaction for 30 minutes at room temperature, 5 μl of donor beads (Streptavidin coated beads (Perkin Elmer Life Science) final concentration 7.5 μg/ml) in stop buffer (25 mM Hepes pH 7.5, 100 mM EDTA, 0.01% BSA) was added, the sample was mixed and incubated for 20 minutes at room temperature before adding 5 μl of acceptor beads (PY20 coated beads (Perkin Elmer Life Science) final concentration 7.5 μg/ml) in stop buffer. The samples were incubated for 60 minutes at room temperature and the signal per well was read on EnVision reader. […] The signal vs. compound concentration was used to determine the IC50.
Cells were grown in Terrific Broth (TB) media to an OD600 of 0.6 at 37° C. at which temperature was reduced to 10° C., protein was induced with 1.0 mM IPTG for 18 hours and harvested by centrifugation at 8000×g for 20 minutes. Cells were re-suspended in 0.1M KPO4 pH 8.0, 250 mM NaCl, 10% Glycerol, 0.75% NP-40, 25 mM Imidazole, 5 mM BME with 0.2 mg/ml Lysosyme, 2.0 mM PMSF, 25 μg/ml DNAse I, incubated in ice for 30 minutes and lysed with a cell disruptor (MicroFluidics). The lysate was clarified by centrifugation at 20,000×g for 2 hours. The protein was captured with Talon resin (Clontech). Contaminating proteins were washed off with 25 mM Tris-HCl pH 8.3, 250 mM NaCl, 15% Glycerol, 1% Triton X-100, and protein eluted using 100 mM EDTA. The protein was further purified using Gel Filtration column 26/600 Superdex 200 (GE) in 50 mM Tris-HCl, pH 8.0, 250 mM NaCl, 15% Glycerol, 5 mM BME. The protein was aliquoted and flash-frozen in liquid Nitrogen.

T1 sequence (P10721 with tags, fused parts or gaps DEL694-753/D816V): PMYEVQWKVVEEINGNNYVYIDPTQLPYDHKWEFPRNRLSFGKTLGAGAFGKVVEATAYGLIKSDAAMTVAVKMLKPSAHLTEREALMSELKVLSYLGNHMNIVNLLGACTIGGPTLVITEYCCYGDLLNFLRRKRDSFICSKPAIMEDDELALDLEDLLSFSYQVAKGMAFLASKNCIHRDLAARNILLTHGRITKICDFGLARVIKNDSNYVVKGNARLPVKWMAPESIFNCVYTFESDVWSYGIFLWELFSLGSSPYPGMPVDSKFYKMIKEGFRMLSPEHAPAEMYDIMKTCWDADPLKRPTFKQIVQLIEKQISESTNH

Row | SMILES | IC50 [µM]
1 | O=C(Nc1ccc(F)cc1)N1CCN(c2ncnc3ccsc23)CC1 [P-0640, N-(4-fluorophenyl)-4-thieno[3,2-d]pyrimidin-4-yl-piperazine-1-carboxamide] | 0.0001 to 1
2 | C[C@H](NC(=O)N1CCN(c2ncnc3ccsc23)CC1(C)C)c1cccc(Cl)c1 [P-0677, N-[(1S)-1-(3-chlorophenyl)ethyl]-2,2-dimethyl-4-thieno[3,2-d]pyrimidin-4-yl-piperazine-1-carboxamide] | 1 to 10
3 | COc1cccc(NC(=O)N2CCN(c3ncnc4[nH]c(-c5cccnc5)cc34)CC2)c1 [P-0231, N-(3-methoxyphenyl)-4-[6-(3-pyridyl)-7H-pyrrolo[2,3-d]pyrimidin-4-yl]piperazine-1-carboxamide] | 1 to 10
4 | O=S(=O)(NC1CCN(c2ncnc3[nH]c(C#CC4CC4)cc23)CC1)c1ccc(Cl)cc1 [P-0471, 4-chloro-N-[1-[6-(2-cyclopropylethynyl)-7H-pyrrolo[2,3-d]pyrimidin-4-yl]-4-piperidyl]benzenesulfonamide] | 10 to 200
5 | Cn1cc(-c2cc3c(N4CCC(NS(=O)(=O)c5ccc6c(c5)OCO6)CC4)ncnc3[nH]2)cn1 [P-0456, N-[1-[6-(1-methylpyrazol-4-yl)-7H-pyrrolo[2,3-d]pyrimidin-4-yl]-4-piperidyl]-1,3-benzodioxole-5-sulfonamide] | 0.0001 to 1
6 | C[C@H](NC(=O)N1CCN(c2ncnc3[nH]c(-c4ccc(C#N)cc4)cc23)C[C@H]1C)c1cccc(F)c1 [P-0693, (2R)-4-[6-(4-cyanophenyl)-7H-pyrrolo[2,3-d]pyrimidin-4-yl]-N-[(1S)-1-(3-fluorophenyl)ethyl]-2-methyl-piperazine-1-carboxamide] | 0.0001 to 1
7 | O=C(NCc1ccc(F)cc1)N1CCN(c2ncnc3[nH]cc(C4CC4)c23)CC1 [P-0179, 4-(5-cyclopropyl-7H-pyrrolo[2,3-d]pyrimidin-4-yl)-N-[(4-fluorophenyl)methyl]piperazine-1-carboxamide] | 1 to 10
8 | Nc1ccc(-c2ncnc3cc(-c4ccc(F)cc4)sc23)cc1 [P-0634, 4-[6-(4-fluorophenyl)thieno[3,2-d]pyrimidin-4-yl]aniline] | 1 to 10
9 | C[C@H]1CN(c2ncnc3[nH]c(-c4ccncc4)cc23)CCN1C(=O)NCc1ccc(F)cc1 [P-0041, (2S)-N-[(4-fluorophenyl)methyl]-2-methyl-4-[6-(4-pyridyl)-7H-pyrrolo[2,3-d]pyrimidin-4-yl]piperazine-1-carboxamide] | 0.0001 to 1
10 | C[C@H](NC(=O)N1CCN(c2ncnc3[nH]c(-c4ccc(F)cc4)cc23)CC1)c1cccc(C(F)(F)F)c1 [P-0033, 4-[6-(4-fluorophenyl)-7H-pyrrolo[2,3-d]pyrimidin-4-yl]-N-[(1S)-1-[3-(trifluoromethyl)phenyl]ethyl]piperazine-1-carboxamide] | 0.0001 to 1
11 | O=C(NCc1ccccc1)N1CCN(c2ncnc3cc(Br)sc23)CC1 [P-0629, N-benzyl-4-(6-bromothieno[3,2-d]pyrimidin-4-yl)piperazine-1-carboxamide] | 10 to 200
12 | Cc1ccc(S(=O)(=O)NC2CCN(c3ncnc4[nH]c(-c5cn(C)nc5C)cc34)CC2)cc1 [P-0659, N-[1-[6-(1,3-dimethylpyrazol-4-yl)-7H-pyrrolo[2,3-d]pyrimidin-4-yl]-4-piperidyl]-4-methyl-benzenesulfonamide] | 0.0001 to 1
13 | CCNS(=O)(=O)c1ccc(-c2ncnc3[nH]c(-c4ccc(F)cc4)cc23)cc1 [P-0422, N-ethyl-4-[6-(4-fluorophenyl)-7H-pyrrolo[2,3-d]pyrimidin-4-yl]benzenesulfonamide] | 10 to 200
14 | CS(=O)(=O)Nc1ccccc1-c1ncnc2[nH]c(-c3ccc(F)cc3)cc12 [P-0375, N-[2-[6-(4-fluorophenyl)-7H-pyrrolo[2,3-d]pyrimidin-4-yl]phenyl]methanesulfonamide] | 10 to 200
15 | CN(C)S(=O)(=O)NC1CCN(c2ncnc3[nH]c(-c4cnn(C)c4)cc23)CC1 [P-0469, 4-[4-(dimethylsulfamoylamino)-1-piperidyl]-6-(1-methylpyrazol-4-yl)-7H-pyrrolo[2,3-d]pyrimidine] | 0.0001 to 1
16 | C[C@@H](NC(=O)N1CCN(c2ncnc3[nH]c(-c4ccc(F)cc4)cc23)CC1)c1ccc(F)cc1 [P-0146, N-[(1R)-1-(4-fluorophenyl)ethyl]-4-[6-(4-fluorophenyl)-7H-pyrrolo[2,3-d]pyrimidin-4-yl]piperazine-1-carboxamide] | 10 to 200
17 | O=S(=O)(NC1CCN(c2ncnc3[nH]c(-c4ccc(Cl)cc4)cc23)CC1)c1ccc(F)cc1 [P-0481, N-[1-[6-(4-chlorophenyl)-7H-pyrrolo[2,3-d]pyrimidin-4-yl]-4-piperidyl]-4-fluoro-benzenesulfonamide] | 10 to 200
18 | Cn1cc(-c2cc3c(N4CCC(NS(=O)(=O)c5ccc(OC(F)(F)F)cc5)CC4)ncnc3[nH]2)cn1 [P-0497, N-[1-[6-(1-methylpyrazol-4-yl)-7H-pyrrolo[2,3-d]pyrimidin-4-yl]-4-piperidyl]-4-(trifluoromethoxy)benzenesulfonamide] | 1 to 10
19 | COc1cccc(NC(=O)N2CCN(c3ncnc4[nH]c(-c5ccccc5)cc34)CC2)c1 [P-0238, N-(3-methoxyphenyl)-4-(6-phenyl-7H-pyrrolo[2,3-d]pyrimidin-4-yl)piperazine-1-carboxamide] | 10 to 200
20 | CC[C@H](NC(=O)N1CCN(c2ncnc3[nH]c(-c4ccncc4)cc23)C[C@H]1C)c1ccccc1 [P-0054, (2R)-2-methyl-N-[(1S)-1-phenylpropyl]-4-[6-(4-pyridyl)-7H-pyrrolo[2,3-d]pyrimidin-4-yl]piperazine-1-carboxamide] | 0.0001 to 1
21 | O=S(=O)(Nc1ccc(-c2ncnc3[nH]c(-c4ccc(F)cc4F)cc23)c(F)c1)c1ccc(F)cc1 [P-0332, N-[4-[6-(2,4-difluorophenyl)-7H-pyrrolo[2,3-d]pyrimidin-4-yl]-3-fluoro-phenyl]-4-fluoro-benzenesulfonamide] | 0.0001 to 1
22 | Cc1ccc(NC(=O)N2CCN(c3ncnc4[nH]c(-c5ccncc5)cc34)C[C@H]2C)cn1 [P-0055, (2R)-2-methyl-N-(6-methyl-3-pyridyl)-4-[6-(4-pyridyl)-7H-pyrrolo[2,3-d]pyrimidin-4-yl]piperazine-1-carboxamide] | 0.0001 to 1
23 | O=C(NC1CCCC1)N1CCN(c2ncnc3[nH]c(-c4ccc(F)cc4)cc23)CC1 [P-0148, N-cyclopentyl-4-[6-(4-fluorophenyl)-7H-pyrrolo[2,3-d]pyrimidin-4-yl]piperazine-1-carboxamide] | 10 to 200
24 | Cc1csc(S(=O)(=O)NC2CCN(c3ncnc4[nH]c(-c5cnn(C)c5)cc34)CC2)c1 [P-0453, 4-methyl-N-[1-[6-(1-methylpyrazol-4-yl)-7H-pyrrolo[2,3-d]pyrimidin-4-yl]-4-piperidyl]thiophene-2-sulfonamide] | 0.0001 to 1
25 | CC(C)(C)Oc1ccc(NC(=O)N2CCN(c3ncnc4[nH]c(-c5ccc(Cl)cc5)cc34)CC2)cc1 [P-0017, N-(4-tert-butoxyphenyl)-4-[6-(4-chlorophenyl)-7H-pyrrolo[2,3-d]pyrimidin-4-yl]piperazine-1-carboxamide] | 10 to 200
26 | COc1ccc(CNC(=O)N2CCN(c3ncnc4[nH]c(-c5ccc(F)cc5)cc34)CC2)cn1 [P-0129, 4-[6-(4-fluorophenyl)-7H-pyrrolo[2,3-d]pyrimidin-4-yl]-N-[(6-methoxy-3-pyridyl)methyl]piperazine-1-carboxamide] | 0.0001 to 1
